Measured values taken from publication PMC8105715, “Modeling of full-length Piezo1 suggests importance of the proximal N-terminus for dome structure” (Biophysical Journal, 2021).

Biological target: T1, human Piezo1 (Homo sapiens, UniProt Q92508)
T1 construct: stably expressed in HEK 293 TREx cells, tetracycline-inducible (P1 HEK TREx); homotrimer
Test: fura-2 intracellular Ca2+ plate-reader assay, inhibition of Yoda1-evoked response
Type: cell-based
Conditions: unreliable (estimated; limited solubility); 5 uM Yoda1; cells pretreated 30 min at 37 C with cholesterol-MbetaCD complex; nominal bath concentration; site not shown, may act through membrane; pH 7.4

T1 sequence (Q92508 whole entry): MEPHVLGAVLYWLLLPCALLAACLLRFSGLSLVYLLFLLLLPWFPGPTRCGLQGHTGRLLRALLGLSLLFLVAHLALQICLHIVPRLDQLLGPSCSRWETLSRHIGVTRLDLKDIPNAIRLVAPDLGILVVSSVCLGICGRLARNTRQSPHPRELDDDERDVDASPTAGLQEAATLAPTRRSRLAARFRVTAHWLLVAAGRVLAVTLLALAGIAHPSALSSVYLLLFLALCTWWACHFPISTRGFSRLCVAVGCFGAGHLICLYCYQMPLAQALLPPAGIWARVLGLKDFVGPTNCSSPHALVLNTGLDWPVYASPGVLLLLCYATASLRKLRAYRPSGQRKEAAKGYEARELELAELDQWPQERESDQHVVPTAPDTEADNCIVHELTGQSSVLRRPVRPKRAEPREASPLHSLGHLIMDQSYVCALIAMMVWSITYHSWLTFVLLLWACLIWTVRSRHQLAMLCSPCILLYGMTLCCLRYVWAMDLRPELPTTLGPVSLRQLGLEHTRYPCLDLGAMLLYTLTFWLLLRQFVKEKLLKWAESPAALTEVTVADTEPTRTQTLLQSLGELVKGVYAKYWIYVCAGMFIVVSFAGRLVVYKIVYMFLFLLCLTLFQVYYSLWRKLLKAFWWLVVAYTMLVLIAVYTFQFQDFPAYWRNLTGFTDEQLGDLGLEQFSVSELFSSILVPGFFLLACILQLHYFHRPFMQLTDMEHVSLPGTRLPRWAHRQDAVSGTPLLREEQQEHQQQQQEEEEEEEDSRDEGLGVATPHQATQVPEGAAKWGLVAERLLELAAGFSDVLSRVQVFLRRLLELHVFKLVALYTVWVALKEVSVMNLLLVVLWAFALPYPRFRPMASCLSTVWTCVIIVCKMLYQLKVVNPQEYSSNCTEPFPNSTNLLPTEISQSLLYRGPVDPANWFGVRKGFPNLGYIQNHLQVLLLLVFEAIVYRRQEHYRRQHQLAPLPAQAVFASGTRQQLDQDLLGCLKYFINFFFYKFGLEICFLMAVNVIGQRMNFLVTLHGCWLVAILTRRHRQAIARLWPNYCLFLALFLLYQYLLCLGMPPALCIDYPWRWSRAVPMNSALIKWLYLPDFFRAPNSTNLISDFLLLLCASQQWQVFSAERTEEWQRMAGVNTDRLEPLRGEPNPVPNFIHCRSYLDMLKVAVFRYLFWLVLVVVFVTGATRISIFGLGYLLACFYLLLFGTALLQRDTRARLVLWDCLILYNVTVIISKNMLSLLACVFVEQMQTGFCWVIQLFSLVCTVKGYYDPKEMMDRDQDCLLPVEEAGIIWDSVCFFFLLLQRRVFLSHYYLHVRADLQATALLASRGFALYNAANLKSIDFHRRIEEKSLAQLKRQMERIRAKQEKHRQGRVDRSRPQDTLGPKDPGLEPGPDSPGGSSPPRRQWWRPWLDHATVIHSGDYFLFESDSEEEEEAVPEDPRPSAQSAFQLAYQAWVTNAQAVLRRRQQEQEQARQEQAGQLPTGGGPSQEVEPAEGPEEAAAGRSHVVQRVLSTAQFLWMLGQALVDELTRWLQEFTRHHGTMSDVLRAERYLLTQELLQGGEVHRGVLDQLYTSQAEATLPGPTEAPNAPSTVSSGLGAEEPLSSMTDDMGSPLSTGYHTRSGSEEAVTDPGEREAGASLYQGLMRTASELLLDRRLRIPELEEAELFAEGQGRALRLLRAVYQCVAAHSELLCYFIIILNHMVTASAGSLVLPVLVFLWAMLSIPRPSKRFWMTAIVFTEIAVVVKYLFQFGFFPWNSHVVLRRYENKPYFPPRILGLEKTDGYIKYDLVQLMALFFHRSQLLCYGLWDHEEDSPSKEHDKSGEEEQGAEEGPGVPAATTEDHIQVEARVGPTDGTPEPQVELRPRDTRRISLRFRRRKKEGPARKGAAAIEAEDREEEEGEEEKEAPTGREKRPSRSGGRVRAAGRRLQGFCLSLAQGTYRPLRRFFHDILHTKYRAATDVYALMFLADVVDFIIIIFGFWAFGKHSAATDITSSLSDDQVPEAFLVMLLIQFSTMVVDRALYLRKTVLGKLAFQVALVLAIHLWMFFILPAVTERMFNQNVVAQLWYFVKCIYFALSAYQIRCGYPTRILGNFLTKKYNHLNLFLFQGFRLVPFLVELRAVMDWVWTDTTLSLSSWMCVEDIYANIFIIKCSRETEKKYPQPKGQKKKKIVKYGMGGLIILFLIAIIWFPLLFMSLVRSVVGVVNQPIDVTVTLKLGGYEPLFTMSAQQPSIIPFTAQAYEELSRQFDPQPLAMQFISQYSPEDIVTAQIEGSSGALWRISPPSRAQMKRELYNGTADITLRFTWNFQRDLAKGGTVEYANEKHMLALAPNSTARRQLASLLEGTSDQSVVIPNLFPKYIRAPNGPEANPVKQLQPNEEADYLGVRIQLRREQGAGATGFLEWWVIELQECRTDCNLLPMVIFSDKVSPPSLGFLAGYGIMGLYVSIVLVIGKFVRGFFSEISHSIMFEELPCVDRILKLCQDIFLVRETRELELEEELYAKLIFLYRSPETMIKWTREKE

IC50: 150 µM
Compound: CC(C)CCC[C@@H](C)[C@H]1CC[C@H]2[C@@H]3CC=C4C[C@@H](O)CC[C@]4(C)[C@H]3CC[C@]12C [cholesterol]
